Results reported in a melting point compilation (Tetko et al.; mined from patent text by program, amines drawn as free bases though some values may be those of a salt).

First: CSc1snc(C(F)(F)F)c1C(=O)O
Second: CC=Cc1c(N)nc(-c2ccc(C(F)(F)F)cc2)nc1C(=O)OC
The melting point of the first is higher: 260 to 262 °C for the first, 123 to 125 °C for the second.

First: CN(C)CCCN(C)C(=O)NC(Cc1c[nH]c2ccccc12)C(=O)CCc1cc(C(F)(F)F)cc(C(F)(F)F)c1 (stereo unspecified)
Second: CN(C)Cc1cc(-c2ccccc2)c2c(n1)OCCN(Cc1cc(C(F)(F)F)cc(C(F)(F)F)c1)C2=O
The melting point of the first is lower: 135 to 137 °C for the first, 186 to 188 °C for the second.

Compared with `Clc1cc(C2CO2)cc(OCc2ccccc2)c1OCc1ccccc1` (stereo unspecified), `COc1ccc(-c2c3c(cc4ccc(OCc5ccccc5)cc24)C(=O)NC3)cc1` is higher in melting point: 154 to 159 °C for the first, 213 to 216 °C for the second.

First: Cc1nc(C(O)c2ccc(Cl)cc2)sc1C (stereo unspecified)
Second: O=C(O)C(=O)c1ccc(-c2ccc(Cl)cc2)s1
The melting point of the first is lower: 107 °C for the first, 339 to 343 °C for the second.

Compared with `CCCCn1c(=O)n2cnnc2c2[nH]c(-c3cc(S(=O)(=O)N4CC(CN(C)C)C4)ccc3OCCC)nc21`, `CCCCN1CC2CN(S(=O)(=O)c3ccc(NC(C)=O)cc3)CC(C1)C2(C)C` is lower in melting point: 198 °C for the first, 130 °C for the second.

Compared with `NC(=O)CC(C(N)=O)(c1ccc(F)cc1)c1ccc(F)cc1`, `CC(=O)n1c(=O)n(CCN2CCC(CC(=O)c3ccc(F)cc3)CC2)c2ccccc21` is lower in melting point: 192 to 193 °C for the first, 149 °C for the second.

First: Cc1ncnc(-c2cc(O)c(Cl)cc2F)c1C
Second: Cc1cc(Cc2cnc(Cl)nc2Cl)c2cccnc2c1N
The melting point of the first is lower: 176 to 178 °C for the first, 209 to 211 °C for the second.

Compared with `CCCn1c2ccccc2c2c3c(nc(C)c21)CC(C)(C)CC3=O`, `Cc1c(C)c(N2Cc3ccccc3C2)c(C)c2c1OC(C)(C)C2c1ccc(F)cc1` (stereo unspecified) is higher in melting point: 123 to 125 °C for the first, 204 to 205 °C for the second.

Compared with `Cc1oc(-c2ccccc2)nc1CCOc1ccc(CCCBr)cc1`, `Cc1oc(-c2cccs2)nc1COc1ccc(Cn2cc(CCC(=O)O)c(-c3ccccc3)n2)cc1` is higher in melting point: 78 to 79 °C for the first, 159 to 160 °C for the second.

First: Cc1cc(=O)[nH]c(=S)n1C1CCCCC1
Second: CCc1cc(OC)c(-c2nc(N)sc2CCC2CCCCC2)cc1OC
The melting point of the first is higher: 240 to 243 °C for the first, 88 °C for the second.

First: N=C(NO)c1cc(C(F)(F)F)cc(-c2ccc(Cl)cc2)n1
Second: O=C1c2ccccc2C(=O)N1OCc1cccc(C(F)(F)F)c1
The melting point of the first is higher: 180 to 186 °C for the first, 106 to 108 °C for the second.

Compared with `CCc1c(Cc2cc(OC)c(OC)c(OC)c2)[nH]c(=O)c(CC(C)C)[n+]1[O-]`, `COc1cc2c(c(OC)c1OC)CCC(Br)C2=O` (stereo unspecified) is lower in melting point: 126 to 127 °C for the first, 107 to 108 °C for the second.

First: O=C1CCC(n2cnc3ccc(Br)cc3c2=O)C(=O)N1 (stereo unspecified)
Second: CC(C)(C)OC(=O)NCCCC(=O)NCc1cccc2c1CN(C1CCC(=O)NC1=O)C2=O (stereo unspecified)
The melting point of the first is higher: 273 to 275 °C for the first, 199 to 201 °C for the second.

First: CCOc1cc(CN2CCN(c3ccc(C(=O)NC4CC4)cc3C)CC2)cc2c1OC(C)C(=O)N2 (stereo unspecified)
Second: CCN1CCN(c2c(F)cc3c(=O)c(C(=O)O)cn(CC)c3c2F)CC1
The melting point of the first is lower: 223 to 224 °C for the first, 236 to 239 °C for the second.

Compared with `COc1ccc(CN2CCOCC2)c(OC)c1-c1ccc(C[C@H](NC(=O)c2c(Cl)cccc2Cl)C(=O)O)cc1`, `COc1ccc(N2CCN(C(=O)[C@H](Cc3ccccc3)NC(=O)Nc3n[nH]c(=S)s3)CC2)cc1` is lower in melting point: 241 to 242 °C for the first, 201 to 203 °C for the second.

Compared with `CNC(=O)ON=C1SCOC1COC` (stereo unspecified), `Cc1ncc2c(c1OCC(=O)O)COC2c1ccc(Cl)cc1` (stereo unspecified) is higher in melting point: 105 to 106 °C for the first, 226 to 230 °C for the second.

Compared with `CCOC(=O)c1c(CN(CC)CC)nc2sc3c(c2c1-c1ccc(OC)c(OC)c1)CCN(S(C)(=O)=O)C3`, `COc1ccc(C(C)NC2=Nc3ccc(Cl)cc3C(=O)N(C)C2)cc1OC` (stereo unspecified) is higher in melting point: 147 to 148 °C for the first, 175 to 178 °C for the second.

First: O=CC(=C(Cl)c1ccc(Cl)cc1Cl)c1ccc(Cl)cc1
Second: Nc1cc(-c2c(-c3ccc(Cl)cc3)nc3cccnn23)ccn1
The melting point of the first is lower: 128 °C for the first, 252 to 253 °C for the second.

Compared with `CCCCCCCCCCCCCCCCCCOC(=O)CBr`, `CCCCCCCCCCCc1coc(N)n1` is higher in melting point: 37 to 40 °C for the first, 55 to 58 °C for the second.

Compared with `CCCCc1ncc(/C=C2\C(=O)NC(=O)N2Cc2ccccc2)n1Cc1ccc(C(=O)O)cc1`, `Cc1ccccc1Cn1c(=O)c2c(N3CCN(C)CC3)cc(Cl)cc2n(Cc2ccccc2)c1=O` is lower in melting point: 297 to 298 °C for the first, 92 to 95 °C for the second.

First: O=C(O)c1nc2ccc(O)cc2[nH]1
Second: CC(=O)n1c2ccccc2c2nc3ccccc3cc21
The melting point of the first is higher: 206 to 207 °C for the first, 163 to 165 °C for the second.

First: Cc1ccc(S(=O)(=O)n2cc3c(c2)SC(=C2SC(SCCc4ccc([N+](=O)[O-])cc4)=C(SCCc4ccc([N+](=O)[O-])cc4)S2)S3)cc1
Second: CC(C)c1cccc(C(C)C)c1N1C(=O)c2ccc3c4cccc5c(C#CCCCCO)ccc(c6ccc(c2c36)C1=O)c54
The melting point of the first is lower: 143 to 144 °C for the first, over 300 °C for the second.

First: CC(C)NCC(O)COC1c2ccccc2C(=O)N1c1ccccc1 (stereo unspecified)
Second: COC[C@H]1CCCN1C(=O)c1cc(-c2ccccc2)c(=O)n2c1-c1ccccc1C2
The melting point of the first is lower: 92 °C for the first, 130 to 131 °C for the second.

First: CC(C)(C)NC(=O)CCCCl
Second: CCCCOC(Cl)C(=O)NCC1OC(C)C(C)O1 (stereo unspecified)
The melting point of the first is higher: 62.5 to 64 °C for the first, 28 °C for the second.

Compared with `Cc1c(-c2ccc(=O)[nH]c2)cccc1[N+](=O)[O-]`, `Cc1nnc2ccc(-c3cccc(N(C)C(=O)C4CC4)c3)nn12` is lower in melting point: 214 to 216 °C for the first, 169 to 172 °C for the second.

First: CCCCCNC(=O)NCCCCCOc1cccc2sc(NC(C)=O)nc12
Second: CCCc1c(OCCCS(=O)(=O)c2ccc(C(=O)CCCCC(=O)O)cc2)ccc(C(C)=O)c1O
The melting point of the first is lower: 61.6 to 61.8 °C for the first, 138 to 140 °C for the second.

First: CS(=O)(=O)c1cccnc1S(C)(=O)=O
Second: CN(Cc1ccc(NS(C)(=O)=O)cc1)C1CCN(c2ccc(NS(C)(=O)=O)cc2)CC1
The melting point of the first is lower: 175 to 176 °C for the first, 177 to 179 °C for the second.

First: OCC1CCc2[nH]c3ccc(F)cc3c2C1 (stereo unspecified)
Second: CC(C)N1CCC(CNc2ccc(F)cc2C(=O)Nc2ccc(Cl)cn2)CC1
The melting point of the first is lower: 107 to 109 °C for the first, 142 to 144 °C for the second.

First: O=C1CCC(=O)N1CCCCCNC(=O)n1cc(F)c(=O)[nH]c1=O
Second: NC(=O)N1CCCN(NC(=O)c2cc(=O)c(O)c[nH]2)C1=O
The melting point of the first is lower: 142 °C for the first, 215 to 220 °C for the second.

Compared with `CC(C)(C)c1cc(Cn2nc(CCCCc3nn(Cc4cc(C(C)(C)C)c(O)c(C(C)(C)C)c4)c(=O)o3)oc2=O)cc(C(C)(C)C)c1O`, `CC(C)(C)NC(=O)c1cc(C(C)(C)C)c(O)c(C(C)(C)C)c1` is higher in melting point: 190 °C for the first, 207 to 208 °C for the second.

First: CC(C)NC(=O)Nc1cccc2c1C(=O)C1(O)c3ccc(C(C)C)cc3OC21O (stereo unspecified)
Second: CC(C)c1cccc(C(C)C)c1NC(=O)NCC1CCCc2ccccc21 (stereo unspecified)
The melting point of the first is lower: 81 to 85 °C for the first, 189 to 190 °C for the second.

Compared with `COc1ccc2cccc3c2c1CCC3CNC(=O)C1CC1` (stereo unspecified), `COc1ccc([C@@H]2CCc3cc(OC)ccc3[C@@H]2CCn2ccnc2)cc1` (relative stereo) is higher in melting point: 119 °C for the first, 121 °C for the second.

First: O=S1(=O)CCC(=NO)C1=NO
Second: Cc1cc(C)c(-c2ccc3c(=O)c(C(=O)O)cn(C4CC4)c3c2C)cn1
The melting point of the first is lower: 181 °C for the first, 217 °C for the second.

First: CCCCN(Cc1ccc(-c2ccccc2-c2nnnn2C(c2ccccc2)(c2ccccc2)c2ccccc2)cc1)c1nc(C)cc(C)n1
Second: COc1ccc(Cl)cc1-c1c(NCn2nnc3ccccc32)c(=O)[nH]c2ccc(C(F)(F)F)cc12
The melting point of the first is lower: 131 to 133 °C for the first, 217 to 219 °C for the second.

Compared with `COc1cc(C(=O)Cn2c(-c3nonc3N)nc3ccccc32)ccc1O`, `COc1cc(CCCC2OC(=O)NC2=O)ccc1OCc1nc(-c2ccccc2)no1` (stereo unspecified) is lower in melting point: 265 °C for the first, 110 to 111 °C for the second.

First: CCCc1c(OCCCOc2ccc(C(=O)C(=O)O)cc2)ccc(C(C)=O)c1OC
Second: CCCCC(=O)NCCc1ccc(S(=O)(=O)NC(=O)c2ccc(C(=O)OC)nc2)cc1
The melting point of the first is lower: 94 to 96 °C for the first, 178 to 180 °C for the second.

Compared with `C=Cc1cccc(-n2cnc(-c3cnc4[nH]cc(C(=O)N[C@@H](C)C(C)(C)C)c4n3)c2)c1`, `COc1ccc(-n2nc(C(C)(C)C)cc2NC(=O)c2nccc3cc(Oc4cc(Cl)ncn4)ccc23)cc1` is lower in melting point: 253 to 257 °C for the first, 156 °C for the second.

Compared with `CCOC(=O)C=C(C)C=CC=C(C)C=Cc1c(Cl)cc(OC)cc1Cl`, `COc1ccc(C=CC(=O)c2c(OC)cc(OC)cc2OC(=O)c2cccnc2)cc1` is lower in melting point: 117 to 118 °C for the first, 55 to 60 °C for the second.

First: O=C(N=C1CCCN1Cc1ccccc1)Nc1ccc(F)c(Cl)c1
Second: CCCc1nc(N)nc(N)c1N1CCN(Cc2ccccc2)CC1
The melting point of the first is lower: 131 to 132 °C for the first, 157 to 160 °C for the second.

First: CCOC(=O)c1nc(-c2ccc(F)cc2)c(-c2ccc(=O)n(C(C)C)n2)s1
Second: CCOC(=O)c1c(-c2ccccc2Cl)c2cc(CC)sc2[nH]c1=O
The melting point of the first is higher: 193 to 194 °C for the first, 126 to 127 °C for the second.

First: CNC(=O)CCC(=O)c1ccc(OCC(O)CNC(C)C)cc1 (stereo unspecified)
Second: O=C(COC(=O)C(O)Cc1ccccc1)Oc1ccccc1 (stereo unspecified)
The melting point of the first is higher: 175 to 178 °C for the first, 98 to 99 °C for the second.

First: NS(=O)(=O)c1cc(OC(F)F)ccc1OC(F)F
Second: COc1ccc2nc3c(cc2c1)c(C(N)=O)nn3C
The melting point of the first is lower: 73 to 74 °C for the first, 268 to 270 °C for the second.

First: N#Cc1ccc(CNC(=O)c2cccc(C#CCn3cncn3)c2)cc1
Second: COCc1nnc(NC(=O)C2c3ccccc3Oc3ccccc32)o1
The melting point of the first is higher: 183 to 186 °C for the first, 113 to 114 °C for the second.

First: O=C(c1ccc(C2CCCCC2)cc1)N1Cc2ccc(C(=O)C(Cl)(Cl)Cl)n2Cc2ccccc21
Second: CC(=O)N1CCC(n2ccc(-c3ccc(F)cc3)c2-c2ccncc2)CC1
The melting point of the first is lower: 172 to 174 °C for the first, 223 to 224 °C for the second.

First: COC(=O)c1ccc2occ(-c3ccc(S(C)=O)cc3)c2c1 (stereo unspecified)
Second: CC(C)(C)c1cc(C(=O)OCc2ccccc2)cc(C(C)(C)C)c1O
The melting point of the first is higher: 145 to 146 °C for the first, 80 to 83 °C for the second.

Compared with `CC(C)(C)[Si](C)(C)OC1CCN(S(=O)(=O)c2ccc(N3CCCCC3)cc2)C1=S` (stereo unspecified), `CC(=O)CCCCOCCCc1ccc(N2CCCC2)cc1` is lower in melting point: 152 to 153 °C for the first, 30 to 31 °C for the second.

First: O=C(O)CN(CC(=O)O)c1cccc(N(CC(=O)O)CC(=O)O)c1
Second: CCOC(=O)Cn1c(=S)c2cc(Cl)ccc2n(Cc2ccc(Br)cc2F)c1=O
The melting point of the first is higher: 188 °C for the first, 89 to 90 °C for the second.

First: N#Cc1cc(F)cc(-c2ccc3c(c2)C(C2CC2)(C2CC2)OC(=O)N3)c1
Second: CC(=O)c1cc(Cl)cc(Oc2ncccc2C(=O)NC[C@H]2CC[C@H](C(C)(C)O)CC2)c1
The melting point of the first is higher: 250 to 252 °C for the first, 133 to 135 °C for the second.
